Source: patent US4713372A, “2-chloropentostatin compound having adenosine diaminase inhibitory activity” (Warner-Lambert Company, priority 1985, dated 1987)
pKi: −log10 of the molar value.

Legend:
[1] = test system: Streptococcus faecalis 05045; assay: Agar disc diffusion, zone of inhibition vs. Streptococcus faecalis 05045; type: cell-based; conditions: Enterococcus faecalis, 12.7 mm disc, 37°, overnight, read-out: Zone diameter
Method: Paper disks (12.7 mm in diameter) impregnated with an aqueous solution containing varying amounts of 2'-chloropentostatin were placed on a layer of agar containing AM-10 assay medium (Table 4) and inoculated with Streptococcus faecalis 05045. After incubation at 37° overnight the following zones of inhibition were observed: […]

[2] = biological target: T1, adenosine deaminase (Homo sapiens, UniProt P00813); assay: biochemical
T1 sequence (P00813 1-363): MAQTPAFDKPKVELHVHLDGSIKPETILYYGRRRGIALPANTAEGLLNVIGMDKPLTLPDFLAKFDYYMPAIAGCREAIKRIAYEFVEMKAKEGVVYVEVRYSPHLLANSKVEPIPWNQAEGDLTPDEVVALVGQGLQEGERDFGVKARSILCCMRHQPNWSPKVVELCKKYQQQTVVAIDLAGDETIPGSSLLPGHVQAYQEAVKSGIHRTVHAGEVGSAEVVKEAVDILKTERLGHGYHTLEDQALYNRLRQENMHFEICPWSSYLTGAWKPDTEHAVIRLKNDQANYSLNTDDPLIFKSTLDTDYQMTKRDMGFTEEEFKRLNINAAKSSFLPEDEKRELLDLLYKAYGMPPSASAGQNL
Method: The potency of 2'-chloropentostatin as an adenosine deaminase inhibitor was determined using the following methods. The velocity (in moles/minute/ml) of the reaction of adenosine deaminase with adenosine was measured for several concentrations of the enzyme in the presence of various concentrations of the inhibitor, 2'-chloropentostatin. The data has been plotted in FIG. 1 in the form of an Ackerman-Potter plot (see W. W. Ackerman and V. R. Potter, Proc. Soc. Exp. Biol. Med., 72:1 (1949)).
The values of Vo /Vi =2 for each curve yield the I50 for the enzyme inhibitor at each substrate concentration. These I50 values have been plotted versus substrate concentration in FIG. 3.

[3] = biological target: T1, adenosine deaminase; conditions: prior patents, in words; cited from earlier work
[4] = test system: DNA viruses, especially herpes and vaccinia viruses; conditions: U.S. Pat. No. 3,616,208; mammals; cited from earlier work
[5] = biological target: T1, adenosine deaminase; conditions: cited from earlier work

Q: With `OC[C@H]1O[C@@H](n2cnc3c2N=CNC[C@H]3O)[C@H](Cl)[C@@H]1O` [2'-chloropentostatin, (R)-3-(2-chloro-2deoxy-beta-D-ribofuranosyl)-3,6,7,8-tetrahydroimidazo[4,5-d][1,3]diazepin-8-ol] as the molecule, how does the zone of inhibition at 0.2 µg/mL ([1]; 0.2 μg/ml) read?
A: 40 mm

Q: What about the zone of inhibition at 2 µg/mL ([1]; 2 μg/ml) of the same molecule?
A: 47 mm

Q: And the zone of inhibition at 20 µg/mL ([1]; 20 μg/ml)?
A: 55 mm

Q: And the zone of inhibition at 200 µg/mL ([1]; 200 μg/ml)?
A: 61 mm

Q: What about the zone of inhibition at 2000 µg/mL ([1]; 2000 μg/ml) of the same molecule?
A: 64 mm

Q: And the pKi [2]?
A: 10.00

Q: And the “type of inhibition of adenosine deaminase” value ([2]; Ackerman-Potter plot, FIG. 1)?
A: "tight-binding" or "pseudo-irreversible" inhibitor

Q: Which “inhibition of adenosine deaminase” value [3] does the source give for `OC[C@H]1O[C@@H](n2cnc3c2N=CNC[C@H]3O)[C@H](O)[C@@H]1O` [coformycin, (R) -3-(beta-D-ribofuranosyl)-3,6,7,8-tetrahydroimidazo[4,5-d][1,3]diazepin-8-ol] here?
A: potent inhibitors of adenosine deaminase

Q: For `Nc1ncnc2c1ncn2[C@@H]1O[C@H](CO)[C@@H](O)[C@@H]1O` [9-(beta-D-arabinofuranosyl)adenine], which “treatment of DNA viruses” value [4] is on record?
A: useful agent for the treatment of DNA viruses

Q: And the “biological efficacy, limitation by deamination/deactivation in vivo” value [5]?
A: greatly diminished by the rapid deamination
